According to the NIST ThermoML archive (doi:10.1021/je050200w):

Assay: xn = mol fraction of the nth substance listed
Conditions: 101 kPa, Liquid

CCCCCCCCCO [nonan-1-ol] + CCCCCCCCO
Conditions	mass density [kg/m3]	viscosity [mPa·s]
283.15 K, x2 = 0	835	17.44
283.15 K, x2 = 0.1001	834.6	16.99
283.15 K, x2 = 0.1998	834.4	16.57
283.15 K, x2 = 0.2999	834.1	16.21
283.15 K, x2 = 0.4003	833.8	15.79
283.15 K, x2 = 0.5001	833.5	15.41
283.15 K, x2 = 0.6001	833.2	15.01
283.15 K, x2 = 0.7	832.9	14.55
283.15 K, x2 = 0.8001	832.7	14.21
283.15 K, x2 = 0.9001	832.3	13.9
288.15 K, x2 = 0	831.5	14.27
288.15 K, x2 = 0.1001	831.3	13.92
288.15 K, x2 = 0.1998	831	13.61
288.15 K, x2 = 0.2999	830.7	13.2
288.15 K, x2 = 0.4003	830.4	12.83
288.15 K, x2 = 0.5001	830.1	12.5
288.15 K, x2 = 0.6001	829.8	12.26
288.15 K, x2 = 0.7	829.5	11.97
288.15 K, x2 = 0.8001	829.3	11.59
288.15 K, x2 = 0.9001	828.9	11.33
293.15 K, x2 = 0	828.1	11.63
293.15 K, x2 = 0.1001	827.8	11.38
293.15 K, x2 = 0.1998	827.6	11.12
293.15 K, x2 = 0.2999	827.3	10.79
293.15 K, x2 = 0.4003	827	10.55
293.15 K, x2 = 0.5001	826.7	10.26
293.15 K, x2 = 0.6001	826.4	10.04
293.15 K, x2 = 0.7	826.1	9.838
293.15 K, x2 = 0.8001	825.8	9.525
293.15 K, x2 = 0.9001	825.5	9.303
298.15 K, x2 = 0	824.7	9.519
298.15 K, x2 = 0.1001	824.4	9.353
298.15 K, x2 = 0.1998	824.1	9.135
298.15 K, x2 = 0.2997	823.8	8.957
298.15 K, x2 = 0.4003	823.5	8.749
298.15 K, x2 = 0.4996	823.2	8.582
298.15 K, x2 = 0.6001	822.9	8.43
298.15 K, x2 = 0.7	822.6	8.238
298.15 K, x2 = 0.8001	822.4	7.976
298.15 K, x2 = 0.9001	822	7.786
303.15 K, x2 = 0	821.3	7.806
303.15 K, x2 = 0.1001	821	7.679
303.15 K, x2 = 0.1998	820.7	7.537
303.15 K, x2 = 0.2997	820.4	7.35
303.15 K, x2 = 0.4003	820.1	7.171
303.15 K, x2 = 0.5001	819.8	7.057
303.15 K, x2 = 0.6001	819.5	6.936
303.15 K, x2 = 0.7	819.2	6.779
303.15 K, x2 = 0.8001	818.9	6.634
303.15 K, x2 = 0.9001	818.6	6.494
308.15 K, x2 = 0	817.8	6.604
308.15 K, x2 = 0.1001	817.5	6.479
308.15 K, x2 = 0.1998	817.2	6.356
308.15 K, x2 = 0.2999	816.9	6.212
308.15 K, x2 = 0.4003	816.6	6.055
308.15 K, x2 = 0.5001	816.3	5.963
308.15 K, x2 = 0.6001	816	5.862
308.15 K, x2 = 0.7	815.7	5.743
308.15 K, x2 = 0.8001	815.4	5.625
308.15 K, x2 = 0.9001	815	5.51
313.15 K, x2 = 0	814.3	5.668
313.15 K, x2 = 0.1001	814	5.579
313.15 K, x2 = 0.1998	813.7	5.458
313.15 K, x2 = 0.2999	813.4	5.377
313.15 K, x2 = 0.4003	813.1	5.258
313.15 K, x2 = 0.5001	812.8	5.181
313.15 K, x2 = 0.6001	812.5	5.068
313.15 K, x2 = 0.7	812.2	4.957
313.15 K, x2 = 0.8001	812	4.872
313.15 K, x2 = 0.9001	811.6	4.773
